pIC50: −log10 of the molar value.
Legend:
Type in all cases: biochemical
Fms = target: T1, Fms (Homo sapiens, UniProt P07333); test: AlphaScreen kinase assay, Fms; details: read-out: IC50, activity toward kinase Fms
T1 construct: purchased Upstate Biotechnology

Fak = target: T2, Fak (Homo sapiens, UniProt Q05397); test: AlphaScreen kinase assay, Fak; details: read-out: IC50, activity toward kinase Fak
T2 construct: P1358.pFastBacHtb FAK S411-Q686-X; His6 with pFastBacHTb leader (TEV site) (N); made in house; host or cells: Sf9 (baculovirus)

B-Raf = target: T3, B-Raf (Homo sapiens, UniProt P15056); test: AlphaScreen kinase assay, B-Raf; details: read-out: IC50, activity toward kinase B-Raf
T3 construct: purchased Upstate Biotechnology

Met = target: T4, Met (Homo sapiens, UniProt P08581); test: AlphaScreen kinase assay, Met; details: read-out: IC50, activity toward kinase Met
T4 construct: P1818.pETN6 BI-PTP MET G1056-G1364-X WT; His6 (N); made in house; host or cells: E. coli (PTP1B co-expressed)
How it was run: (§1)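 Biotinylated peptide substrate phosphorylation detected by AlphaScreen with phospho-specific antibody acceptor beads and streptavidin donor beads. Compounds tested as 8-point 1:3 serial dilutions from 20 mM DMSO stocks.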

Flt1 = target: T5, Flt1 (Homo sapiens, UniProt P17948); test: AlphaScreen kinase assay, Flt1; details: read-out: IC50, activity toward kinase Flt1
T5 construct: P1826.pETN6 BI-PTP FLT1 M799-D1165-X WT; His6 (N); made in house; host or cells: E. coli (PTP1B co-expressed)
T5 sequence (P17948 with tags, fused parts or gaps): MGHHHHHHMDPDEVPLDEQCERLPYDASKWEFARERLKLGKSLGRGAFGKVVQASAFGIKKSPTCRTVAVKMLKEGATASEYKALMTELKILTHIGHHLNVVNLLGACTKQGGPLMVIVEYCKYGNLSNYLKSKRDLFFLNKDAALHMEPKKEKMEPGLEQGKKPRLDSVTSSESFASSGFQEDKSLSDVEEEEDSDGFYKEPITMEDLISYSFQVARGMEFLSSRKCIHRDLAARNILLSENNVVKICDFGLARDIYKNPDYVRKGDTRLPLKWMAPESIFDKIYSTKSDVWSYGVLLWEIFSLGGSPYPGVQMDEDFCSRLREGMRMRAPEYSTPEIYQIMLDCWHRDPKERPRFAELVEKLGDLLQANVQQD

Jnk2 = target: T6, Jnk2 (Homo sapiens, UniProt P45984); test: AlphaScreen kinase assay, Jnk2; details: read-out: IC50, activity toward kinase Jnk2
T6 construct: purchased Roche Protein Expression Group (Indianapolis, IN)
How it was run: as §1

Stk6 = target: T7, Stk6 (Homo sapiens, UniProt O14965); test: Z'-Lyte FRET kinase assay (Invitrogen), Stk6; details: read-out: IC50, activity toward kinase Stk6
T7 construct: purchased Invitrogen (Carlsbad, Calif.), screening service
T7 sequence (O14965 1-403): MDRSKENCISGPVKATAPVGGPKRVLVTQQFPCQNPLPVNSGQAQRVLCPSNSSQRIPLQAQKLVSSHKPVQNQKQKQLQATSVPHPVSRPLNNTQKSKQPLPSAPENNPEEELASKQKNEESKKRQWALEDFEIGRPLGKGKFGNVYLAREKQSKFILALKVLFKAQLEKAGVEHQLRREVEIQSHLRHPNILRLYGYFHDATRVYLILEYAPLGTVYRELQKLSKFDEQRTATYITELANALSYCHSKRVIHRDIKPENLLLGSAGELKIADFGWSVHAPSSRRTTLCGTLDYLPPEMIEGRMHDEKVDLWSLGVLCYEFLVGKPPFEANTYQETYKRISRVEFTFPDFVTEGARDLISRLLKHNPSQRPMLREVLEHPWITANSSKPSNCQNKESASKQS

Kit = target: T8, Kit (Homo sapiens, UniProt P10721); test: AlphaScreen kinase assay, Kit; details: read-out: IC50, activity toward kinase Kit
T8 construct: P1332.N6 BI PTP KIT M552-K948-X COD; His6 (N); made in house; host or cells: E. coli (PTP1B co-expressed)

Ret = target: T9, Ret (Homo sapiens, UniProt P07949); test: AlphaScreen kinase assay, Ret; details: read-out: IC50, activity toward kinase Ret
T9 construct: P1378.pET-SF BI-PTP RET H661-R1012 HIS; made in house
T9 sequence (P07949 with tags, fused parts or gaps): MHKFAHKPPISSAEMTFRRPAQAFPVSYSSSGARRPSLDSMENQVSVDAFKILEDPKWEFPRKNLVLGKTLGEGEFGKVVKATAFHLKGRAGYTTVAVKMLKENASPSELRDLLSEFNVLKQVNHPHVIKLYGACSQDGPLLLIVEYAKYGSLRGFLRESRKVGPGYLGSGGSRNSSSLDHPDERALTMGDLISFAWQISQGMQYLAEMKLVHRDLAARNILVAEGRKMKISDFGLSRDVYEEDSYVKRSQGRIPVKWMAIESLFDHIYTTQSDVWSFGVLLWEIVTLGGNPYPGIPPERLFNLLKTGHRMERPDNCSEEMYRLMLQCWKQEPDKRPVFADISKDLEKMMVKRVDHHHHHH

FGFR1 = target: T10, FGFR1 (Homo sapiens, UniProt P11362, C488A/C584S); test: AlphaScreen kinase assay, FGFR1; details: read-out: IC50, activity toward kinase FGFR
T10 construct: P1351.pET N6 BI-PTP FGFR A458-E765-X C488A, C584S; made in house; host or cells: E. coli (PTP1B co-expressed)

Kdr = target: T11, Kdr (Homo sapiens, UniProt P35968); test: Z'-Lyte FRET kinase assay (Invitrogen), Kdr; details: read-out: IC50, activity toward kinase Kdr
T11 construct: purchased Invitrogen (assay run by Invitrogen)

Jnk3 = target: T12, Jnk3 (Homo sapiens, UniProt P53779); test: AlphaScreen kinase assay, Jnk3; details: read-out: IC50, activity toward kinase Jnk3
T12 construct: purchased Upstate Biotechnology

B-Raf V600E = target: T13, B-Raf V600E (Homo sapiens, UniProt P15056, V600E); test: AlphaScreen kinase assay, B-Raf V600E; details: read-out: IC50, activity toward kinase B-Raf V600E
T13 construct: P4254. pFastBacBD-CDC37 BRAF D437-K722-X, V600E; His6 with pFastBac HT leader (TEV site) (N); made in house; host or cells: Sf9 (baculovirus; chaperone CDC37 co-expressed)

Btk = target: T14, Btk (Homo sapiens, UniProt Q06187); test: Z'-Lyte FRET kinase assay (Invitrogen), Btk; details: read-out: IC50, activity toward kinase Btk
T14 construct: purchased Invitrogen (assay run by Invitrogen)
Excerpt: For example, direct radiometric, indirect FRET or AlphaScreen assays may be used to assess the level of phosphorylation of a substrate in the presence of test compounds in order to determine the inhibitory affect of the compound on the kinase. […] For these assays, compounds of the invention were screened by Invitrogen using Z′-Lyte™ kinase assay.
Briefly, the Invitrogen kinase assay involves use of a specific peptide substrate optimized for each kinase, containing a fluorophore at each end that make up the FRET pair. The peptide sensitivity to proteolytic cleavage depends on phosphorylation of the peptide. Non-phosphorylated peptide is cleaved by a protease while peptide phosphorylated by the kinase is not cleaved. Cleavage of the peptide disrupts the FRET between the donor (coumarin) and acceptor (fluorescein) fluorophores, resulting in an increase in the ratio of donor emission to acceptor emission. The emission ratio of coumarin to fluorescein is used to assess the reaction progress. […] Thus, the assay involves a kinase reaction in the presence of varying concentrations of a given compound, a development reaction with site specific protease, and detection of the fluorescent emission ratio of coumarin and fluorscein. […] Reaction conditions for each kinase are determined to provide optimal reaction times, incubation temperature, kinase and ATP concentrations. Test samples are made up in 1× kinase buffer (50 mM HEPES pH 7.5, 50 mM MgCl2, 5 mM EGTA, 0.05% BRIJ-35) and compound at desired concentration prepared in DMSO such that the final DMSO is 1%. […] All kinase except for MAP2K1 were at 10 μM ATP in the kinase reaction, while MAP2K1 was at 100 μM. Samples are mixed and the kinase reaction is incubated 1 hour at room temperature, after which 5 μl of development solution is added and mixed. After incubation for another 1 hour at room temperature, 5 μl of stop reagent is added to each sample and mixed. The fluorescence signals are measured to determine the emission ratio.

Abl = target: T15, Abl (Homo sapiens, UniProt P00519); test: AlphaScreen kinase assay, Abl; details: read-out: activity toward kinase Abl, IC50
T15 construct: P1121. pET-SPEC BI-PTP Abl G227-V515-X; His6 (N); made in house; host or cells: E. coli (PTP1B co-expressed)
T15 sequence (P00519 with tags, fused parts or gaps): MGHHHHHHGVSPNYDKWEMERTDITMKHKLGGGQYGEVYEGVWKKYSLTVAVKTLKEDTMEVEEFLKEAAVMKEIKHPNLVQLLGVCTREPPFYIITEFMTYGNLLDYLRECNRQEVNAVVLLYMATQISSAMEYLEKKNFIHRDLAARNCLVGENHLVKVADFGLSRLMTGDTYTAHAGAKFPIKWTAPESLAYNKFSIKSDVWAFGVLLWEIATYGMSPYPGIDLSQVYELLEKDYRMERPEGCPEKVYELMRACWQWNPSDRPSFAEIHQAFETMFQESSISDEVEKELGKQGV
How it was run: as §1

Jnk1 = target: T16, Jnk1 (Homo sapiens, UniProt P45983); test: AlphaScreen kinase assay, Jnk1; details: read-out: IC50, activity toward kinase Jnk1
T16 construct: purchased Upstate Biotechnology

Syk = Syk (Homo sapiens, UniProt P43405); test: AlphaScreen kinase assay, Syk; details: read-out: IC50, activity toward kinase Syk
Excerpt: AlphaScreen assay was used to screen additional kinases. The assay is similarly dependent on the phosphorylation of a peptide substrate. In this assay, an antibody that recognizes phosphorylated substrate is bound to an acceptor bead. The peptide substrate is attached to biotin, which binds to a donor head that contains streptavidin. Thus phosphorylated substrate is bound by antibody and streptavidin, bringing the donor and acceptor heads into close proximity when kinase is not inhibited. The donor produces singlet oxygen which results in emission from the acceptor when they are in close proximity. Conversely, when kinase is inhibited, the donor and acceptor beads are not associated and the emission from the acceptor is reduced.
AlphaScreen assays were done using compounds dissolved in DMSO to a concentration of 20 mM. The compounds were diluted accordingly to the desired final concentrations in each sample well, using 1:3 serial dilution for a total of 8 concentration points.

MAPKAPK2 = target: T17, MAPKAPK2 (Homo sapiens, UniProt P49137); test: Z'-Lyte FRET kinase assay (Invitrogen), MAPKAPK2; details: read-out: IC50, activity toward kinase MAPKAPK2
T17 construct: purchased Invitrogen (assay run by Invitrogen)
Excerpt: The effect of potential modulators of kinase activity can be measured in a variety of different assays known in the art. For example, direct radiometric, indirect FRET or AlphaScreen assays may be used to assess the level of phosphorylation of a substrate in the presence of test compounds in order to determine the inhibitory affect of the compound on the kinase. Invitrogen (Carlsbad, Calif.) uses a FRET based assay for Btk, EGFR, EphB2, Flt3, lrak4, Kdr, MAP2K1, MAPKAPK2, PDGFRB, PKC theta, Stk6 and Yes. For these assays, compounds of the invention were screened by Invitrogen using Z′-Lyte™ kinase assay.
Briefly, the Invitrogen kinase assay involves use of a specific peptide substrate optimized for each kinase, containing a fluorophore at each end that make up the FRET pair. The peptide sensitivity to proteolytic cleavage depends on phosphorylation of the peptide. Non-phosphorylated peptide is cleaved by a protease while peptide phosphorylated by the kinase is not cleaved. Cleavage of the peptide disrupts the FRET between the donor (coumarin) and acceptor (fluorescein) fluorophores, resulting in an increase in the ratio of donor emission to acceptor emission. The emission ratio of coumarin to fluorescein is used to assess the reaction progress. The extent of phosphorylation is determined from the emission ratio, which is low when the kinase is active (phosphorylated peptide is not cleaved, FRET pair connected) or higher for inhibited kinase (non-phosphorylated peptide is cleaved, FRET pair separated). Thus, the assay involves a kinase reaction in the presence of varying concentrations of a given compound, a development reaction with site specific protease, and detection of the fluorescent emission ratio of coumarin and fluorscein. […] Reaction conditions for each kinase are determined to provide optimal reaction times, incubation temperature, kinase and ATP concentrations. Test samples are made up in 1× kinase buffer (50 mM HEPES pH 7.5, 50 mM MgCl2, 5 mM EGTA, 0.05% BRIJ-35) and compound at desired concentration prepared in DMSO such that the final DMSO is 1%. […] Typically, assay plates are prepared to 10 μl final volume per sample, adding 2.5 μl of compound at 4× the desired concentration in 4% DMSO (serial dilution of compound provides concentration curve), 5 μl of the desired kinase mixed with Z′-LYTE™ peptide substrate (2× in 2× kinase buffer, final peptide at 2 μM), and 2.5 μl of 4×ATP solution. All kinase except for MAP2K1 were at 10 μM ATP in the kinase reaction, while MAP2K1 was at 100 μM. Samples are mixed and the kinase reaction is incubated 1 hour at room temperature, after which 5 μl of development solution is added and mixed. After incubation for another 1 hour at room temperature, 5 μl of stop reagent is added to each sample and mixed. The fluorescence signals are measured to determine the emission ratio.

Src = target: T18, Src (Homo sapiens, UniProt P12931); test: AlphaScreen kinase assay, Src; details: read-out: IC50, activity toward kinase Src
T18 construct: P1144. pET-N6 BI-PTP SRC V86-L536-X; made in house

Flt4 = target: T19, Flt4 (Homo sapiens, UniProt P35916); test: AlphaScreen kinase assay, Flt4; details: read-out: IC50, activity toward kinase Flt4
T19 construct: purchased ProQinase GmbH (Freiburg, Germany)
How it was run: as §1

Measured: pIC50

T13 sequence (P15056 with tags, fused parts or gaps V600E): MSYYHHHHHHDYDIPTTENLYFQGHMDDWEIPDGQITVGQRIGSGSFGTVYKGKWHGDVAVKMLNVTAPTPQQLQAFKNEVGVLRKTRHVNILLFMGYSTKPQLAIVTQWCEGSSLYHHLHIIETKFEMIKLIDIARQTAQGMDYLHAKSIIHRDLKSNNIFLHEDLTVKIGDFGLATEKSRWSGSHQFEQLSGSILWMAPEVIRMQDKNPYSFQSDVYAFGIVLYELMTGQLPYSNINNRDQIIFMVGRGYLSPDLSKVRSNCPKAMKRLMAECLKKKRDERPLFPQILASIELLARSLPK
T6 sequence (P45984 whole entry): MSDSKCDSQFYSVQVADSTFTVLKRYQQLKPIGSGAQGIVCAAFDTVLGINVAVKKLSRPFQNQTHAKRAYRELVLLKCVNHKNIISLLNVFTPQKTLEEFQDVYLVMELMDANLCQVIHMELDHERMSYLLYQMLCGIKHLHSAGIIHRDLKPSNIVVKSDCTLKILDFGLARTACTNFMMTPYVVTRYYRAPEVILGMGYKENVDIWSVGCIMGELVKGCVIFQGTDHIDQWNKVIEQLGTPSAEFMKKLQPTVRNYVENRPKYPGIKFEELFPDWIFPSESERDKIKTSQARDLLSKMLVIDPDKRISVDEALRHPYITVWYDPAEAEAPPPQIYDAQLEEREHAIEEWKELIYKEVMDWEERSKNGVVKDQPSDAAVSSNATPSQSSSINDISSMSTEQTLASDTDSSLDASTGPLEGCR
T12 sequence (P53779 whole entry): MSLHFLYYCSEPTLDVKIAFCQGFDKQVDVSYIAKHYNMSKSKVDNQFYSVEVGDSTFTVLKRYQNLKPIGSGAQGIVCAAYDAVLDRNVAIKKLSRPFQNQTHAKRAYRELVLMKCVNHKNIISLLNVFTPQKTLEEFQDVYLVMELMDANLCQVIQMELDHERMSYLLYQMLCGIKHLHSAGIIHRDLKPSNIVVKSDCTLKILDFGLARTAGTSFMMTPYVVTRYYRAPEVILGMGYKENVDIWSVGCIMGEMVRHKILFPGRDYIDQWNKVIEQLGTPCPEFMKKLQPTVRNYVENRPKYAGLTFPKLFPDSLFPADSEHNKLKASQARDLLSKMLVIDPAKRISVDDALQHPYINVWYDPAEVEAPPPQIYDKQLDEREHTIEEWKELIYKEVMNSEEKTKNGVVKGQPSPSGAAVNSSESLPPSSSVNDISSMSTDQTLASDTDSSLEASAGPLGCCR
T3 sequence (P15056 whole entry): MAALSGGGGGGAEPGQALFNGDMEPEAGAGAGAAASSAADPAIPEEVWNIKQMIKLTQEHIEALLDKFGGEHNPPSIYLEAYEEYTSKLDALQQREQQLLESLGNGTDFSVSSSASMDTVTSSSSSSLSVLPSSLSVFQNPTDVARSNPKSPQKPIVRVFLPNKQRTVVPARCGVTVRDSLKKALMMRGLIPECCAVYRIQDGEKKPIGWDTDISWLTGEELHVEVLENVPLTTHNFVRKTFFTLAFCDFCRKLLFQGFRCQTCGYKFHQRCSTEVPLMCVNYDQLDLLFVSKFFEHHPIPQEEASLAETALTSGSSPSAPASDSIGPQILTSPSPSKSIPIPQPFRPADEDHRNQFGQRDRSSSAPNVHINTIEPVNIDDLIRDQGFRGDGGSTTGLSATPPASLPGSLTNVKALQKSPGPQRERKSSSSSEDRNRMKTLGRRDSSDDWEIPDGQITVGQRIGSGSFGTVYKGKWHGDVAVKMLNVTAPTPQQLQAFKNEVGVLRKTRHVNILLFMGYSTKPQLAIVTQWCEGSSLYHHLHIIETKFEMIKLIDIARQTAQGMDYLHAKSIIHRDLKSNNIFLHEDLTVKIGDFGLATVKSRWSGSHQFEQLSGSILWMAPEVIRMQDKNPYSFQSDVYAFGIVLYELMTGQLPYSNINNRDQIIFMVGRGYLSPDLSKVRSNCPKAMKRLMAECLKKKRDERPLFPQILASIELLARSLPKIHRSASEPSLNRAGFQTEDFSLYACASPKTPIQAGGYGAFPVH
T16 sequence (P45983 whole entry): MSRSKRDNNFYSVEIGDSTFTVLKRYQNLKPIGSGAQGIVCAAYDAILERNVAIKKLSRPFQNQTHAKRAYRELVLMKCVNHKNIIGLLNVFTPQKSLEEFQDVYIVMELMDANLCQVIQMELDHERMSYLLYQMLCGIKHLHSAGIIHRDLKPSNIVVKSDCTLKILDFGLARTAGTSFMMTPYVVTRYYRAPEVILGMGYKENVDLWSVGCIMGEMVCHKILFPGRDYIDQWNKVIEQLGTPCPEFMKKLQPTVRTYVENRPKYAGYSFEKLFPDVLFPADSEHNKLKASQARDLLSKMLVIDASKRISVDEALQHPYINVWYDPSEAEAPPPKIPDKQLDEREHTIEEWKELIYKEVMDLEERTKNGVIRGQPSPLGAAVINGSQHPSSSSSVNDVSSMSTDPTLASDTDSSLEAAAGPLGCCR
T10 sequence (P11362 458-765 C488A/C584S): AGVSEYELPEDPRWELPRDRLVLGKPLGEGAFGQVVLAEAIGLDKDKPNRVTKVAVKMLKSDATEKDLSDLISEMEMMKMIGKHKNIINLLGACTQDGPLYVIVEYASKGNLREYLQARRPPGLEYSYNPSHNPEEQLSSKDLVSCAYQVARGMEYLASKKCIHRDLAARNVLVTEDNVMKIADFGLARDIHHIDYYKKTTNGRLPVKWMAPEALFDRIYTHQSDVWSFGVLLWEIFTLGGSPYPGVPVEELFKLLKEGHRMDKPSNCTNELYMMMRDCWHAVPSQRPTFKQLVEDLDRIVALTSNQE
T8 sequence (P10721 with tags, fused parts or gaps): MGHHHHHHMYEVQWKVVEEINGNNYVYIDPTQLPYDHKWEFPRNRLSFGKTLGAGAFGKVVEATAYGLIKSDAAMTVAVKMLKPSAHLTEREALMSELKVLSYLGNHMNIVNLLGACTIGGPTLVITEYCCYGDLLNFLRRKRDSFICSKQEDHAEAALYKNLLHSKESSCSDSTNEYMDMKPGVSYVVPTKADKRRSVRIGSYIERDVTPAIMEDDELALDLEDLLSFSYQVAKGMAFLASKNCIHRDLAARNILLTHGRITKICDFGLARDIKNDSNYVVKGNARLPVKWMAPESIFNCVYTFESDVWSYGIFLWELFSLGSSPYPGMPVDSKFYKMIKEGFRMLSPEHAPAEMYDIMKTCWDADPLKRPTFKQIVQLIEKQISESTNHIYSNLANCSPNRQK
T11 sequence (P35968 20-1356): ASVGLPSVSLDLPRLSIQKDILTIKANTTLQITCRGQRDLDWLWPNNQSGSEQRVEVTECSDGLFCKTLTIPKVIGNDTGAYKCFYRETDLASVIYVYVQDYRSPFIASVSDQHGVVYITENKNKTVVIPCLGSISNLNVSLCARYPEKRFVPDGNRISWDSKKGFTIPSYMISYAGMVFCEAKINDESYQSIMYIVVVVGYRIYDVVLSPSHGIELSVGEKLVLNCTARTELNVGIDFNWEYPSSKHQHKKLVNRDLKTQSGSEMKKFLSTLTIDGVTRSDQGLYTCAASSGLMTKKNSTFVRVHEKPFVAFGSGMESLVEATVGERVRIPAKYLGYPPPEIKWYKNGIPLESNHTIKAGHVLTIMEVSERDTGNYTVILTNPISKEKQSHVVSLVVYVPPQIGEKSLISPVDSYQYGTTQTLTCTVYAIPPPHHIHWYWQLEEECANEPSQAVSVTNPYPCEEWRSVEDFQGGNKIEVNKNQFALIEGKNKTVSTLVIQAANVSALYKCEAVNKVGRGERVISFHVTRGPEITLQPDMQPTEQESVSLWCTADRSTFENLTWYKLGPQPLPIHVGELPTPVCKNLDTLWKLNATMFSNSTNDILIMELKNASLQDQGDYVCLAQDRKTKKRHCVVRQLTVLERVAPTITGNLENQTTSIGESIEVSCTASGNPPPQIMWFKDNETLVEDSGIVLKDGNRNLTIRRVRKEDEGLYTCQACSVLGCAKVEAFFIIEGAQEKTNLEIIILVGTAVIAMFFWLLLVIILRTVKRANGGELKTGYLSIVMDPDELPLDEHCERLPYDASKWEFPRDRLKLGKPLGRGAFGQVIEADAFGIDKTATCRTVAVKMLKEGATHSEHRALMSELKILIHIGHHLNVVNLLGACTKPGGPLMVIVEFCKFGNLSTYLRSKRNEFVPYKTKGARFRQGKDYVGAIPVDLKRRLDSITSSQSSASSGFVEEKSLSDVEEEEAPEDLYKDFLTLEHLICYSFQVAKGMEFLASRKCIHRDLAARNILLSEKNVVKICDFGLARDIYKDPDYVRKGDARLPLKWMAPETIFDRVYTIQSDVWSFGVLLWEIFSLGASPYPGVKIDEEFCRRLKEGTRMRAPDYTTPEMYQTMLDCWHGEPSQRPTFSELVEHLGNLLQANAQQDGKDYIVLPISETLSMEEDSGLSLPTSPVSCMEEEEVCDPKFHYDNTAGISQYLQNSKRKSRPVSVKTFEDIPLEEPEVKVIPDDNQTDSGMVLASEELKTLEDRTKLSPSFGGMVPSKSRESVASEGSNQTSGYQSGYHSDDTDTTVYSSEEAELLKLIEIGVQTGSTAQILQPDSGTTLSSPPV
T18 sequence (P12931 with tags, fused parts or gaps): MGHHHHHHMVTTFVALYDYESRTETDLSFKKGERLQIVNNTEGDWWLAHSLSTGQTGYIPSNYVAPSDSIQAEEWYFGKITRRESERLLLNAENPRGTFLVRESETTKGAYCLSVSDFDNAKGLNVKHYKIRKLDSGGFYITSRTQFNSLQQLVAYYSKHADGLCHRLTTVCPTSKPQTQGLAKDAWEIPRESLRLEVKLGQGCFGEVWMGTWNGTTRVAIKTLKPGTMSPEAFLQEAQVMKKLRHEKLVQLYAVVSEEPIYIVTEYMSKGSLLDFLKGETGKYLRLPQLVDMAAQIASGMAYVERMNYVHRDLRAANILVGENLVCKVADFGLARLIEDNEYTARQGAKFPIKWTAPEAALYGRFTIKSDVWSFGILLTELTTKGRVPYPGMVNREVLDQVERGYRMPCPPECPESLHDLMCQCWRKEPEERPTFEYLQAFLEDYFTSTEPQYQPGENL

COc1cccc(C(=O)c2c[nH]c3ncc(-c4cccc(/C=C/C(=O)O)c4)cc23)c1 [Compound P-0054]
not listed: MAPKAPK2 | Src | Flt4
≥ 5.00: all other assays above

COc1cccc(C(=O)c2c[nH]c3ncc(-c4ccc[nH]4)cc23)c1 [Compound P-0151]
≥ 5.00: MAPKAPK2

O=C(c1cccc(O)c1)c1c[nH]c2ncc(-c3ccsc3)cc12 [Compound P-0448]
not listed: Fms | Fak | Met | Stk6 | Btk | MAPKAPK2
≥ 5.00: all other assays above

Cc1ccccc1C(=O)c1c[nH]c2ncc(-c3cccc(N)c3)cc12 [Compound P-0599]
not listed: Fms | Fak | Met | Flt1 | Stk6 | Kdr | Btk | MAPKAPK2
≥ 5.00: all other assays above
